Experimental data as given in patent US8486962B2, “Antifungal agents” (F2G Ltd., priority 2005, dated 2013).
In brackets after ≈: the same amount, converted by molar mass. Like-named read-outs stand apart in the source and are kept apart here.

Columns and labels:
[1] = test system: A Terreus 49; test: MIC, YAG medium, A Terreus 49; type: cell-based, Aspergillus terreus; settings: Aspergillus terreus, read-out: MIC A Terreus 49
Procedure: Measurement of Minimum Inhibitory Concentrations (MICs)
Between 1 and 5 mgs of compound were accurately weighed out into a sterile Eppendorf tube. The compound was dissolved in DMSO to give a solution containing 5 mg/ml. Tubes were stored at −20° C. until required.
On the day of testing thawed solutions were vortex mixed to ensure homogeneity. 30 μl of solution was removed and added to 570 μl of sterile water in a separate sterile Eppendorf. The thoroughly mixed solution was used to prepare a series of doubling dilutions in water, in a deep well plate. Eleven replicate plates were prepared using a Minitrak by aspirating 20 μl from each well into eleven clear polystyrene 96 well plates.
Spores of Aspergillus spp (Aspergillus fumigatus, Aspergillus terreus, Aspergillus niger and Aspergillus flavus) were harvested from cultures grown on Sabarauds agar for 5 days, and resuspended in PBS/Tween 80 to approx 1×10^7 cfu/ml Other filamentous fungi (Fusarium solani, Scedosporium spp., Trichophyton spp., Absidia corymbifera), were grown on Sabarauds agar for 2-10 days and spores/hyphae resuspended in PBS/Tween to give approx 1×10^7 cfU/ml. Candida species (Candida albicans, Candida glabrata, Candida krusei, Candida parapsilosis and Candida tropicalis) were grown on Sabarauds agar, cells were harvested from the agar using a sterile loop and resuspended in PBS/Tween 80 to approx 1×10^6 cfu/ml. Each organism suspension was diluted in RPMI medium, containing 2% glucose and 0.135M MOPS buffer (pH7.0) to 2×10^4 cfu/ml for Aspergillus spp and other filamentous fungi and 2×10^3 cfu/ml for yeast. 80 μl of an organism suspension was added to each well of the plate containing drug dilutions.
This produced MIC plates with a drug range 50-0.05 mg/L and organism inocula of 1-2×10^4 cfu/ml for Aspergillus spp and other filamentous fungi and 1-2×10^3 cfu/ml for yeasts. All plates were incubated for 24-48 hrs at 35° C. Growth was assessed by monitoring the optical density at 485 nm for each well. The MIC of a compound is the lowest drug concentration that inhibits growth of an organism by >80% compared with a drug free control. MICs are recorded as mg/L. Other growth media can be used for susceptibility testing, and the activity of the described compounds can also be assessed in a medium comprising, 1% glucose, 1% ammonium chloride and 0.5% yeast extract (YAG medium). To perform MIC tests in this medium, dilutions of compounds are prepared in microtitre plates as described above. Fungal strains to be tested are grown and harvested in an identical manner to that described above, each organism suspension is then diluted in YAG medium to 2×10^4 cfu/ml for Aspergillus spp and other filamentous fungi and 2×10^3 cfu/ml for yeast. 80 μl of an organism suspension was added to each well of the plate containing drug dilutions. This produced MIC plates with a drug range 50-0.05 mg/L and organism inocula of 1-2×10^4 cfu/ml for Aspergillus spp and other filamentous fungi and 1-2×10^3 cfu/ml for yeasts. All plates were incubated for 24 hrs at 35° C. Growth was assessed by monitoring the optical density at 485 nm for each well. The MIC of a compound is the lowest drug concentration that inhibits growth of an organism by >70% compared with a drug free control. MICs are recorded as mg/L. In cases where the MIC of an organism is […]0.05 mg/L the MIC is repeated using a concentration range of 0.5-0.0005 mg/L. MIC tests in YAG medium have more clear-cut endpoints and have slightly lower MICS than those performed in RPMI medium.
The following organisms were tested: Aspergillus fumigatus AF293 and Aspergillus fumigatus AF210, Aspergillus niger, Aspergillus terreus, Aspergillus favus, Candida albicans, Candida krusei, Candida tropicalis, Candida glabrata, Candida parapsilosis, Trichophyton rubrum, Trichophyton mentagrophytes, Scedosporium prolificans, Scedosporium apiospermum, Absidia corymbifera, Fusarium solani.

[2] = test system: Aspergillus flavus; test: MIC, YAG medium, Aspergillus flavus; type: cell-based; settings: for MIC: Aspergillus flavus, read-out: MIC A Flavus 01
Summary of the method: (§1)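 In YAG medium (1% glucose, 1% ammonium chloride, 0.5% yeast extract), Aspergillus strains at 1-2×10^4 cfu/ml were read after 24 hrs at 35° C, with MIC at >70% growth inhibition by OD485. C. albicans was run in MOPS-buffered RPMI, pH7.0, at 1-2×10^3 cfu/ml for 24-48 hrs, with MIC at >80% inhibition. The drug range was 50-0.05 mg/L.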

[3] = test system: Aspergillus niger; test: MIC, YAG medium, Aspergillus niger; type: cell-based; settings: for MIC: Aspergillus niger, read-out: MIC A Niger 1
Summary of the method: as §1

[4] = test system: Aspergillus fumigatus AF210; test: MIC, YAG medium, Aspergillus fumigatus AF210; type: cell-based; settings: for MIC: Aspergillus fumigatus
Summary of the method: as §1

[5] = test system: Aspergillus terreus; test: MIC, YAG medium, Aspergillus terreus; type: cell-based; settings: for MIC: Aspergillus terreus, read-out: MIC A Terreus 4
Summary of the method: as §1

[6] = test system: Aspergillus fumigatus AF293; test: MIC, YAG medium, Aspergillus fumigatus AF293; type: cell-based; settings: for MIC: Aspergillus fumigatus
Summary of the method: as §1

[7] = AF210, YAG medium, read-out: MIC A Fum. 210
[8] = AF293, YAG medium, read-out: MIC A Fum. 293

Structure (SMILES) | MIC ([1]; YAG medium) [µg/mL] | MIC ([2]; YAG medium) [µg/mL] | MIC ([3]; YAG medium) [µg/mL] | MIC [4, 7] [µg/mL] | MIC ([5]; YAG medium) [µg/mL] | MIC [6, 8] [µg/mL] | also measured
O=C(Nc1ccc(F)cc1)C(=O)c1c(-c2ccccc2)cc2ccccn12 [Example 200, N-(4-Fluoro-phenyl)-2-oxo-2-(2-phenyl-indolizin-3-yl)-acetamide] | 0.015 (≈ 0.0419 µM) | 0.062 (≈ 0.173 µM) | 0.031 (≈ 0.0865 µM) | 0.25 (≈ 0.698 µM) | 0.015 (≈ 0.0419 µM) | 0.25 (≈ 0.698 µM) | –
COC(=O)c1ccc(NC(=O)C(=O)c2c(-c3ccccc3)cc3ccccn23)cc1 [Example 140, 4-[2-Oxo-2-(2-phenyl-indolizin-3-yl)-acetylamino]-benzoic acid methyl ester] | 0.015 (≈ 0.0376 µM) | 0.031 (≈ 0.0778 µM) | 0.031 (≈ 0.0778 µM) | 0.12 (≈ 0.301 µM) | 0.031 (≈ 0.0778 µM) | 0.12 (≈ 0.301 µM) | –
COc1cccc(NC(=O)C(=O)c2c(-c3ccccc3)cc3ccccn23)c1 [Example 138, N-(3-Methoxy-phenyl)-2-oxo-2-(2-phenyl-indolizin-3-yl)-acetamide] | 0.004 (≈ 0.0108 µM) | 0.015 (≈ 0.0405 µM) | 0.12 (≈ 0.324 µM) | 0.12 (≈ 0.324 µM) | 0.031 (≈ 0.0837 µM) | 0.12 (≈ 0.324 µM) | –
CCN(CC)C(=O)Oc1cccc(NC(=O)C(=O)c2c(-c3ccccc3)cc3ccccn23)c1 [Example 266, Diethyl-carbamic acid 3-[2-oxo-2-(2-phenyl-indolizin-3-yl)-acetylamino]-phenyl ester] | – | – | – | – | – | – | MIC [1]: 0.2 µg/mL (≈ 0.439 µM); MIC [2]: 0.2 µg/mL (≈ 0.439 µM); MIC [3]: 6.25 µg/mL (≈ 13.7 µM); MIC ([4]; AF210, read-out: MIC A Fum. 210): 1.6 µg/mL (≈ 3.51 µM); MIC [5]: 0.2 µg/mL (≈ 0.439 µM); MIC ([6]; AF293, read-out: MIC A Fum. 293): 0.8 µg/mL (≈ 1.76 µM)
Cc1ccc(NC(=O)C(=O)c2c(-c3ccccc3)cc3ccccn23)cc1 [Example 135, 2-Oxo-2-(2-phenyl-indolizin-3-yl)-N-p-tolyl-acetamide] | 0.002 (≈ 0.00564 µM) | 0.015 (≈ 0.0423 µM) | 0.015 (≈ 0.0423 µM) | 0.062 (≈ 0.175 µM) | 0.008 (≈ 0.0226 µM) | 0.12 (≈ 0.339 µM) | –
COc1ccc(NC(=O)C(=O)c2c(-c3cccs3)cc3ccccn23)cn1 [Example 167, N-(6-Methoxy-pyridin-3-yl)-2-oxo-2-(2-thiophen-2-yl-indolizin-3-yl)-acetamide] | 0.062 (≈ 0.164 µM) | 0.062 (≈ 0.164 µM) | 0.5 (≈ 1.32 µM) | 1.6 (≈ 4.24 µM) | 0.25 (≈ 0.662 µM) | 1.6 (≈ 4.24 µM) | –
COc1ccc(NC(=O)C(=O)c2c(-c3ccco3)cc3ccccn23)cn1 [Example 170, 2-(2-Furan-2-yl-indolizin-3-yl)-N-(6-methoxy-pyridin-3-yl)-2-oxo-acetamide] | – | 3.1 (≈ 8.58 µM) | 3.1 (≈ 8.58 µM) | > 50 | > 50 | > 50 | –
COC(=O)c1ccc(OC(=O)C(=O)c2c(-c3ccccc3)cc3ccccn23)cc1 [Example 177, 4-[2-Oxo-2-(2-phenyl-indolizin-3-yl)-acetoxy]-benzoic acid methyl ester] | – | > 50 | 6.25 (≈ 15.6 µM) | > 50 | 6.25 (≈ 15.6 µM) | 50 (≈ 125 µM) | –
O=C(Nc1ccccn1)C(=O)c1c(-c2ccccc2)cc2ccccn12 [Example 151, 2-Oxo-2-(2-phenyl-indolizin-3-yl)-N-pyridin-2-yl-acetamide] | – | 1.6 (≈ 4.69 µM) | 0.4 (≈ 1.17 µM) | 6.25 (≈ 18.3 µM) | 0.4 (≈ 1.17 µM) | 6.25 (≈ 18.3 µM) | –
COc1ccc(NC(=O)C(=O)c2c(-c3ccccc3)cc3c(C)cccn23)cn1 [Example 194, N-(6-Methoxoy-pyridin-3-yl)-2-(8-methyl-2-phenyl-indolizin-3-yl)-2-oxo-acetamide] | – | – | – | – | – | – | MIC A Flavus 01 ([2]; YAG medium): >50 µg/mL; MIC A Niger 1 ([3]; YAG medium): >50 µg/mL; MIC A Fum. 210 ([4]; YAG medium): >50 µg/mL; MIC A Terreus 4 ([5]; YAG medium): 25 µg/mL (≈ 64.9 µM); MIC A Fum. 293 ([6]; YAG medium): >50 µg/mL

Continued, in another order:

MIC ([1]; YAG medium) [µg/mL] | MIC ([2]; YAG medium) [µg/mL] | MIC ([3]; YAG medium) [µg/mL] | MIC [4, 7] [µg/mL] | MIC ([5]; YAG medium) [µg/mL] | MIC [6, 8] [µg/mL] | Structure (SMILES) | also measured
0.05 (≈ 0.103 µM) | 0.015 (≈ 0.0309 µM) | 0.05 (≈ 0.103 µM) | 0.2 (≈ 0.412 µM) | 0.1 (≈ 0.206 µM) | 0.2 (≈ 0.412 µM) | Cc1ncccc1-c1cc2ccccn2c1C(=O)C(=O)Nc1ccc(OCC(F)(F)C(F)F)cc1 [Example 283, 2-[2-(2-Methyl-pyridin-3-yl)-indolizin-3-yl]-2-oxo-N-[4-(2,2,3,3-tetrafluoro-propoxy)-phenyl]-acetamide] | –
0.1 (≈ 0.26 µM) | 0.2 (≈ 0.52 µM) | 0.4 (≈ 1.04 µM) | 0.8 (≈ 2.08 µM) | 0.2 (≈ 0.52 µM) | 1.6 (≈ 4.16 µM) | CC(O)c1ccc(NC(=O)C(=O)c2c(-c3ccccc3)cc3ccccn23)cc1 (stereo not shown) [Example 255, N-[4-(1-Hydroxy-ethyl)-phenyl]-2-oxo-2-(2-phenyl-indolizin-3-yl)-acetamide] | –
0.2 (≈ 0.492 µM) | 0.2 (≈ 0.492 µM) | 0.1 (≈ 0.246 µM) | 1.6 (≈ 3.94 µM) | 0.2 (≈ 0.492 µM) | 1.6 (≈ 3.94 µM) | COc1ccccc1-c1cc2ccccn2c1C(=O)C(=O)Nc1ccc(F)cc1F [Example 269, N-(2,4-Difluoro-phenyl)-2-[2-(2-methoxy-phenyl)-indolizin-3-yl]-2-oxo-acetamide] | –
0.008 (≈ 0.0208 µM) | 0.015 (≈ 0.039 µM) | 0.015 (≈ 0.039 µM) | 0.25 (≈ 0.65 µM) | 0.015 (≈ 0.039 µM) | 0.5 (≈ 1.3 µM) | COc1ccc(NC(=O)C(=O)c2c(-c3ccc(C)cc3)cc3ccccn23)cc1 [Example 238, N-(4-Methoxy-phenyl)-2-oxo-2-(2-p-tolyl-indolizin-3-yl)-acetamide] | –
0.062 (≈ 0.162 µM) | 0.062 (≈ 0.162 µM) | 0.062 (≈ 0.162 µM) | 0.5 (≈ 1.31 µM) | 0.031 (≈ 0.0811 µM) | 0.5 (≈ 1.31 µM) | CC(=O)c1ccc(NC(=O)C(=O)c2c(-c3ccccc3)cc3ccccn23)cc1 [Example 205, N-(4-Acetyl-phenyl)-2-oxo-2-(2-phenyl-indolizin-3-yl)-acetamide] | –
– | 1.6 (≈ 3.71 µM) | > 50 | > 50 | 3.1 (≈ 7.19 µM) | > 50 | COc1cc(NC(=O)C(=O)c2c(-c3cccnc3)cc3ccccn23)cc(OC)c1OC [Example 226, 2-Oxo-2-(2-pyridin-3-yl-indolizin-3-yl)-N-(3,4,5-trimethoxy-phenyl)-acetamide] | –
– | 0.05 (≈ 0.125 µM) | 0.8 (≈ 2 µM) | > 50 | 0.05 (≈ 0.125 µM) | 50 (≈ 125 µM) | COc1ccc(NC(=O)C(=O)c2c(-c3ccccc3)cc3ccc(OC)cn23)cc1 [Example 239, N-(4-Methoxy-phenyl)-2-(6-methoxy-2-phenyl-indolizin-3-yl)-2-oxo-acetamide] | –
– | 0.1 (≈ 0.267 µM) | 0.05 (≈ 0.133 µM) | 0.8 (≈ 2.13 µM) | 0.05 (≈ 0.133 µM) | 0.8 (≈ 2.13 µM) | O=C(Nc1ccccc1Cl)C(=O)c1c(-c2ccccc2)cc2ccccn12 [Example 207, N-(2-Chloro-phenyl)-2-oxo-2-(2-phenyl-indolizin-3-yl)-acetamide] | –
– | 12.5 (≈ 29.2 µM) | > 50 | > 50 | 12.5 (≈ 29.2 µM) | 50 (≈ 117 µM) | CN(C)CCOc1cccc(NC(=O)C(=O)c2c(-c3ccccc3)cc3ccccn23)c1 [Example 240, N-[3-(2-Dimethylamino-ethoxy)-phenyl]-2-oxo-2-(2-phenyl-indolizin-3-yl)-acetamide] | –
